This is an account of results in PubChem BioAssay (NCI).

Each structure is given as a SMILES string.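 Cells were grown in 96-well plates and exposed to each compound for 48 hours at five concentrations; endpoints were interpolated linearly between bracketing concentrations, or set to the highest concentration if not reached. The concentration for 50% growth inhibition is given as GI50. TGI: total growth inhibition.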 A value given as a limit tells only on which side of the number the result lay.

Experiment in all cases: growth of human tumour cells (NCI), 48 h
Test [1] relates to 786-0 renal.
Test [2] concerns EKVX NSCLC.
Test [3] has as its system HCT-15 colon.
Test [4] concerns K-562 leukemia.
Test [5] concerns LOX IMVI melanoma.
Test [6] deals with SF-295 CNS.
Test [7] has as its system SF-539 CNS.
The subject of test [8] is U251 CNS.
For test [9], the system named is UACC-257 melanoma.
The subject of test [10] is SNB-75 CNS.

On to `CC(C)(C)C(=O)[CH-]C(=O)C(F)(F)C(F)(F)C(F)(F)F.CC(C)(C)C(=O)[CH-]C(=O)C(F)(F)C(F)(F)C(F)(F)F.[O-]CC1OC(O)C(O)C(O)C1O.[O-]CC1OC(O)C(O)C(O)C1O.[Ti+4]`, for which the TGI in [1], in [2], in test [3], in test [4], in test [5] and in [6] was greater than 100 µM throughout. Moreover, the TGI in test [7], in test [8] and in test [9] was greater than 100 µM throughout.
As to `CCOC(=O)C1(Cc2ccc3ccccc3c2)CCCCCN1` (stereo not given), the TGI in [1] was 34.2 µM; in test [2] it was greater than 100 µM; in test [3], 41.4 µM; in [4], 68.7 µM; in [5], 39.6 µM; in test [6], 39 µM. Further, the TGI in test [10] is 30.2 µM; in test [8] it was greater than 100 µM.
As for `COc1ccc(C2C3=C(COC3=O)N(CCO)c3cc4c(cc32)OCCO4)cc1OC` (stereo not given), the GI50 in test [1] is 2.48 µM; in test [2] it was 5.98 µM; in test [3] it was 5.39 µM; in test [4] it was 1.38 µM; in test [5] it was 3.84 µM; in test [6], 0.922 µM. Also, the results for the GI50 in [7], in [8] and in test [9] were 1.69 µM, 2.89 µM and 2.4 µM, respectively. The TGI was greater than 50 µM in [1]; greater than 50 µM in test [2]; greater than 50 µM in test [3]; greater than 50 µM in test [4]; greater than 50 µM in [5]; 12 µM in test [6]. Further, the values for the TGI in test [7], in [8] and in test [9] were greater than 18 µM, greater than 50 µM and greater than 50 µM, respectively.
With `Oc1[nH]c2ccc(Cl)cc2c1/C=c1/ccc2c(c1)N=C(c1cc(F)cc(F)c1)N=2`, the GI50 in [1] is 3.66 µM; in test [2], 27.7 µM; in test [3], 3.96 µM; in test [4] it was 3.12 µM; in [5], 3.52 µM; in [7] it was 8.7 µM. In addition, in test [10], the GI50 was 2.06 µM. Besides, the TGI in test [1], in test [2], in test [3], in [4], in [5] and in [7] was greater than 100 µM each time. The compound also registered a TGI in [10] of 7.13 µM.
For `CON`, the GI50 in [1], in test [2], in test [3], in test [5], in test [6] and in [7] was greater than 100 µM throughout. For the same compound, the GI50 in test [10], in [8] and in [9] was greater than 100 µM in each case. Besides, the TGI in [1], in test [2], in test [3], in test [5], in test [6] and in test [7] was greater than 100 µM in each case. The TGI in [10], in test [8] and in test [9] was greater than 100 µM in each case.
As for `O=C1c2ccccc2C(=O)c2c(NC(=O)c3ccc4c5c(ncnc35)-c3ccccc3C4=O)cccc21`, the TGI in [1] was 84.7 µM; in test [2], greater than 100 µM; in test [3] it was greater than 100 µM; in test [4] it was greater than 100 µM; in test [6], 64 µM; in test [7], greater than 100 µM. For the same compound, the TGI in [10] was 58.5 µM; in [8] it was greater than 100 µM; in test [9], greater than 100 µM.
Turning to `CC(=O)N[C@@H](Cc1ccc(OP(=O)(O)O)cc1)C(=O)N[C@H]1CCC(=O)N2CCC[C@@H](C(=O)NCc3ccc(O)cc3)N2C1=O`, the GI50 in test [1], in [3], in test [4], in [5], in [6] and in [7] was greater than 25 µM in each case. The GI50 in [10], in test [8] and in test [9] was greater than 25 µM each time. Besides, the TGI in [1], in [3], in [4], in test [5], in test [6] and in test [7] was greater than 25 µM each time. Also, the TGI in test [10], in test [8] and in test [9] was greater than 25 µM in each case.
Regarding `CN(C)CCOc1nc2ccccc2c2c1-c1ccc(Cl)cc1C2=O`, the GI50 in test [1] was 0.889 µM; in test [2], 2.06 µM; in test [3], 0.464 µM; in test [5], 0.416 µM; in test [6] it was 1.53 µM; in test [7], 1.07 µM. For the same compound, the results for the GI50 in test [10], in [8] and in [9] were 1.22 µM, 0.38 µM and 1.25 µM, respectively. The TGI in [1] was 3.26 µM; in test [2], 6.85 µM; in test [3] it was 1.92 µM; in [5], 1.78 µM; in test [6], greater than 100 µM; in [7] it was 2.59 µM. For the same compound, the TGI is 2.62 µM in test [10], 1.59 µM in test [8] and 2.97 µM in [9].
Take `CC[O-].CC[O-].O=C([CH-]C(=O)c1ccccc1)c1ccccc1.O=C([CH-]C(=O)c1ccccc1)c1ccccc1.[Ti+4]`: the GI50 is greater than 100 µM in test [1]; greater than 100 µM in test [2]; greater than 100 µM in test [3]; greater than 100 µM in test [5]; greater than 100 µM in test [6]; 19.8 µM in [7]. Besides, the GI50 in test [10] is 61.6 µM; in test [8], 57.2 µM; in [9], greater than 100 µM. Also, the TGI in test [1], in [2], in test [3], in [5], in test [6] and in test [7] was greater than 100 µM each time. Also, the TGI in test [10], in test [8] and in [9] was greater than 100 µM in each case.
